Measured values from ChEMBL document CHEMBL1201862, “PubChem BioAssay data set” (2004).
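Test compounds were applied to cells in 96-well plates for 48 hours at 5 doses. Here, GI50 denotes the concentration required for 50% inhibition of growth.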 The source made the active and inactive calls. Cut-off read from the data, not from the text of the source: active = GI50 up to about 1.1 µM and inactive = higher. Where a SMILES comes first, the peptide text is derived from it. [ ]: non-standard residue; d: D form. The star is where a group is joined. Cbz = O=C(OCc1ccccc1)*; Aib = CC(C)(N)C(=O)O

Experiments:
Assay in all cases: NCI-60 cell line screen, 48 h
NCI-H522 = tested on: NCI-H522
M14 = tested on: M14
OVCAR-4 = tested on: OVCAR-4
K562 = tested on: K562
SF-268 = tested on: SF-268
SF-539 = tested on: SF-539
RXF 393 = tested on: RXF 393
NCI/ADR-RES = tested on: NCI/ADR-RES
MOLT-4 = tested on: MOLT-4
ACHN = tested on: ACHN
NCI-H23 = tested on: NCI-H23
LOX IMVI = tested on: LOX IMVI
SK-MEL-28 = tested on: SK-MEL-28
TK-10 = tested on: TK-10
T47D = tested on: T47D
CCRF-CEM = tested on: CCRF-CEM
UACC-257 = tested on: UACC-257
UACC-62 = tested on: UACC-62
EKVX = tested on: EKVX
HCT-15 = tested on: HCT-15
A549 = tested on: A549
U-251 = tested on: U-251
SR = tested on: SR
HCT-116 = tested on: HCT-116
SNB-75 = tested on: SNB-75
MCF7 = tested on: MCF7
SK-MEL-2 = tested on: SK-MEL-2
HCC 2998 = tested on: HCC 2998
KM12 = tested on: KM12
A498 = tested on: A498
SNB-19 = tested on: SNB-19
OVCAR-8 = tested on: OVCAR-8
SK-OV-3 = tested on: SK-OV-3
CAKI-1 = tested on: CAKI-1
UO-31 = tested on: UO-31
OVCAR-3 = tested on: OVCAR-3
SK-MEL-5 = tested on: SK-MEL-5
OVCAR-5 = tested on: OVCAR-5
HOP-62 = tested on: HOP-62
MDA-N = tested on: MDA-N
SW-620 = tested on: SW-620
SF-295 = tested on: SF-295
MDA-MB-231 = tested on: MDA-MB-231
Malme-3M = tested on: Malme-3M
DU-145 = tested on: DU-145
COLO 205 = tested on: COLO 205
786-0 = tested on: 786-0
PC-3 = tested on: PC-3
RPMI-8226 = tested on: RPMI-8226
MDA-MB-435 = tested on: MDA-MB-435
HOP-92 = tested on: HOP-92
NCI-H460 = tested on: NCI-H460
HT-29 = tested on: HT-29
IGROV-1 = tested on: IGROV-1
Hs-578T = tested on: Hs-578T
SN12C = tested on: SN12C
NCI-H226 = tested on: NCI-H226

With `CN(C)/C=N/Cc1ccc2c(c1)OCO2` the GI50 (NCI-H522) was > 100 µM (inactive), the GI50 (M14) was > 100 µM (inactive) and the GI50 (OVCAR-4) was > 100 µM (inactive). The GI50 (K562) was > 100 µM (inactive), the GI50 (SF-268) was > 100 µM (inactive) and the GI50 (SF-539) was > 100 µM (inactive). The GI50 (RXF 393) was > 100 µM (inactive), the GI50 (NCI/ADR-RES) was > 100 µM (inactive) and the GI50 (MOLT-4) was > 100 µM (inactive). For the same molecule, the GI50 (ACHN) was > 100 µM (inactive), the GI50 (NCI-H23) was > 100 µM (inactive) and the GI50 (LOX IMVI) was > 100 µM (inactive). The GI50 (SK-MEL-28) was > 100 µM (inactive), the GI50 (TK-10) was > 100 µM (inactive) and the GI50 (T47D) was > 100 µM (inactive). The GI50 (CCRF-CEM) was > 100 µM (inactive), the GI50 (UACC-257) was > 100 µM (inactive) and the GI50 (UACC-62) was > 100 µM (inactive). For the same molecule, the GI50 (EKVX) was > 100 µM (inactive), the GI50 (HCT-15) was greater than 100 µM and the GI50 (A549) was > 100 µM (inactive). The GI50 (U-251) was > 100 µM (inactive), the GI50 (SR) was > 100 µM (inactive) and the GI50 (HCT-116) was > 100 µM (inactive). The GI50 (SNB-75) was > 100 µM (inactive), the GI50 (MCF7) was > 100 µM (inactive) and the GI50 (SK-MEL-2) was > 100 µM (inactive). The GI50 (HCC 2998) was > 100 µM (inactive), the GI50 (KM12) was > 100 µM (inactive) and the GI50 (A498) was > 100 µM (inactive). The GI50 (SNB-19) was > 100 µM (inactive), the GI50 (OVCAR-8) was > 100 µM (inactive) and the GI50 (SK-OV-3) was > 100 µM (inactive). For the same molecule, the GI50 (CAKI-1) was > 100 µM (inactive), the GI50 (UO-31) was > 100 µM (inactive) and the GI50 (OVCAR-3) was > 100 µM (inactive). For the same molecule, the GI50 (SK-MEL-5) was > 100 µM (inactive), the GI50 (OVCAR-5) was > 100 µM (inactive) and the GI50 (HOP-62) was > 100 µM (inactive). The GI50 (MDA-N) was > 100 µM (inactive), the GI50 (SW-620) was > 100 µM (inactive) and the GI50 (SF-295) was > 100 µM (inactive). For the same molecule, the GI50 (MDA-MB-231) was > 100 µM (inactive), the GI50 (Malme-3M) was > 100 µM (inactive) and the GI50 (DU-145) was > 100 µM (inactive). The GI50 (COLO 205) was > 100 µM (inactive), the GI50 (786-0) was > 100 µM (inactive) and the GI50 (PC-3) was > 100 µM (inactive). The GI50 (RPMI-8226) was > 100 µM (inactive), the GI50 (MDA-MB-435) was > 100 µM (inactive) and the GI50 (HOP-92) was > 100 µM (inactive). For the same molecule, the GI50 (NCI-H460) was > 100 µM (inactive), the GI50 (HT-29) was > 100 µM (inactive) and the GI50 (IGROV-1) was > 100 µM (inactive). For the same molecule, the GI50 (Hs-578T) was > 100 µM (inactive), the GI50 (SN12C) was > 100 µM (inactive) and the GI50 (NCI-H226) was > 100 µM (inactive).
With `CC(C)(NC(=O)C(C)(C)NC(=O)OCc1ccccc1)C(=O)O` (Cbz-[Aib]-[Aib]-OH) the GI50 (NCI-H522) was > 100 µM (inactive), the GI50 (M14) was > 100 µM (inactive) and the GI50 (OVCAR-4) was > 100 µM (inactive). For the same molecule, the GI50 (K562) was > 100 µM (inactive), the GI50 (SF-268) was > 100 µM (inactive) and the GI50 (SF-539) was > 100 µM (inactive). The GI50 (NCI/ADR-RES) was > 100 µM (inactive), the GI50 (MOLT-4) was > 100 µM (inactive) and the GI50 (ACHN) was > 100 µM (inactive). The GI50 (NCI-H23) was > 100 µM (inactive), the GI50 (LOX IMVI) was > 100 µM (inactive) and the GI50 (SK-MEL-28) was > 100 µM (inactive). The GI50 (TK-10) was > 100 µM (inactive), the GI50 (T47D) was > 100 µM (inactive) and the GI50 (CCRF-CEM) was > 100 µM (inactive). The GI50 (UACC-257) was > 100 µM (inactive), the GI50 (UACC-62) was > 100 µM (inactive) and the GI50 (EKVX) was > 100 µM (inactive). For the same molecule, the GI50 (HCT-15) was greater than 100 µM, the GI50 (A549) was > 100 µM (inactive) and the GI50 (U-251) was > 100 µM (inactive). The GI50 (SR) was > 100 µM (inactive), the GI50 (HCT-116) was > 100 µM (inactive) and the GI50 (SNB-75) was > 100 µM (inactive). The GI50 (MCF7) was > 100 µM (inactive), the GI50 (SK-MEL-2) was > 100 µM (inactive) and the GI50 (HCC 2998) was > 100 µM (inactive). The GI50 (KM12) was > 100 µM (inactive), the GI50 (A498) was > 100 µM (inactive) and the GI50 (SNB-19) was > 100 µM (inactive). The GI50 (OVCAR-8) was > 100 µM (inactive), the GI50 (SK-OV-3) was > 100 µM (inactive) and the GI50 (CAKI-1) was > 100 µM (inactive). For the same molecule, the GI50 (UO-31) was > 100 µM (inactive), the GI50 (OVCAR-3) was > 100 µM (inactive) and the GI50 (SK-MEL-5) was > 100 µM (inactive). The GI50 (OVCAR-5) was > 100 µM (inactive), the GI50 (HOP-62) was > 100 µM (inactive) and the GI50 (MDA-N) was > 100 µM (inactive). For the same molecule, the GI50 (SW-620) was > 100 µM (inactive), the GI50 (SF-295) was > 100 µM (inactive) and the GI50 (MDA-MB-231) was > 100 µM (inactive). For the same molecule, the GI50 (Malme-3M) was > 100 µM (inactive), the GI50 (DU-145) was > 100 µM (inactive) and the GI50 (COLO 205) was > 10 µM (inactive). For the same molecule, the GI50 (786-0) was > 100 µM (inactive), the GI50 (PC-3) was > 100 µM (inactive) and the GI50 (RPMI-8226) was > 100 µM (inactive). For the same molecule, the GI50 (MDA-MB-435) was > 100 µM (inactive), the GI50 (HOP-92) was > 100 µM (inactive) and the GI50 (NCI-H460) was > 100 µM (inactive). For the same molecule, the GI50 (HT-29) was > 100 µM (inactive), the GI50 (IGROV-1) was > 100 µM (inactive) and the GI50 (Hs-578T) was > 100 µM (inactive). The GI50 (SN12C) was > 100 µM (inactive) and the GI50 (NCI-H226) was > 100 µM (inactive).
